Experimental data as given in patent US6413517B1, “Identification of broadly reactive DR restricted epitopes” (Epimmune, Inc., priority 1997, dated 2002).
Where two headings read alike, the source gives them in different places.

Tests used:
[1] = target: T1, DRB1*0101 (DR1) (Homo sapiens, UniProt P01903+P01911, A100R/D57E/F55L/F60I/F76Y/I96L/L162R/M171V/P40L/Q125E/R42F/V115G/Y59C); test: biochemical; assay type: binding; conditions: Binding Capacity (IC 50% nM) DR1,4,7 DRB1
T1 construct: Epstein-Barr virus (EBV) transformed homozygous cell lines were used as sources; endogenous in cells; host or cells: LG2 (EBV-transformed homozygous B cell line)

[2] = target: T2, DRB1*0401 (DR4w4) (Homo sapiens, UniProt P01903+P01911, A100K/A169T/F76Y/I96L/K127E/L162R/M171V/N62H/P40V/Q125Y/R42H/S133A/S149N/S66Y/V115G/V209L/W38E); test: biochemical; assay type: binding
T2 construct: Epstein-Barr virus (EBV) transformed homozygous cell lines were used as sources; endogenous in cells; host or cells: PREISS (EBV-transformed homozygous B cell line)

[3] = target: T3, DRB1*0701 (DR7) (Homo sapiens, UniProt P01903+P01911, A100R/A102G/A103Q/D57E/D86V/E43K/F76Y/K127E/L162R/M171V/P40G/Q125H/Q99D/R33Q/R42Y/R54Q/S133A/S66F/T210M/V115G/Y107V/Y59L/Y89S); test: biochemical; assay type: binding; conditions: Binding Capacity (IC 50% nM) DR1,4,7 DR7
T3 construct: Epstein-Barr virus (EBV) transformed homozygous cell lines were used as sources; endogenous in cells; host or cells: PITOUT (EBV-transformed homozygous B cell line)

[4] = target: T4, DRB1*1501 (DR2w2b) (Homo sapiens, UniProt P01903+P01911); test: biochemical; assay type: binding
T4 construct: expressed in transfected cells; host or cells: transfected fibroblasts L466.1

[5] = target: T5, DRB5*0101 (DR2w2a) (Homo sapiens, UniProt P01903+Q30154); test: biochemical; assay type: binding
T5 construct: Epstein-Barr virus (EBV) transformed homozygous cell lines were used as sources; endogenous in cells; host or cells: GM3107 (EBV-transformed homozygous B cell line)

[6] = target: T6, DRB1*0405 (DR4w15) (Homo sapiens, UniProt P01903+P01911, A100R/A169T/D86S/F76Y/I96L/K127E/L162R/M171V/N62H/P40V/Q125Y/R42H/S133A/S149N/S66Y/V115G/V209L/W38E); test: biochemical; assay type: binding
T6 construct: Epstein-Barr virus (EBV) transformed homozygous cell lines were used as sources; endogenous in cells; host or cells: KT3 (EBV-transformed homozygous B cell line)

[7] = target: T7, DRB1*1101 (DR5w11) (Homo sapiens, UniProt P01903+P01911, A100R/A169T/A87E/I96F/K41T/L162R/M171V/P40S/Q125H/Q178H/Q39Y/Q99D/R42S/S66Y/T262R/V115G/W38E); test: biochemical; assay type: binding
T7 construct: Epstein-Barr virus (EBV) transformed homozygous cell lines were used as sources; endogenous in cells; host or cells: SWEIG (EBV-transformed homozygous B cell line)
T7 sequence (P01903 26-254, other chains not shown): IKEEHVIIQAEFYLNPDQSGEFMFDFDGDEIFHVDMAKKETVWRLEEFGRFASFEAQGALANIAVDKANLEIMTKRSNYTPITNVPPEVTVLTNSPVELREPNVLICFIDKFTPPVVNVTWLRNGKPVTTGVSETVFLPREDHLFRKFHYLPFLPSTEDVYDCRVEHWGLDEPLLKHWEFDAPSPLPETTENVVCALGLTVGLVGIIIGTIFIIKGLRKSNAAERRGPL

[8] = target: T8, DRB1*1302 (DR6w19) (Homo sapiens, UniProt P01903+P01911, A100E/A169T/K41T/L162R/M171V/P40S/Q125H/Q178H/Q39Y/Q99D/R42S/S66N/T262R/V115G/W38E/Y61H); test: biochemical; assay type: binding; conditions: Binding Capacity (IC 50% nM) Other Alleles DR6w19
T8 construct: Epstein-Barr virus (EBV) transformed homozygous cell lines were used as sources; the source of Class II molecules the EBV transformed homozygous cell line H0301; endogenous in cells; host or cells: H0301 (EBV-transformed homozygous B cell line)

[9] = target: T9, DRB1*0802 (DR8w2) (Homo sapiens, UniProt P01903+P01911, A100R/A103L/A169T/F76Y/H45Y/I96F/K41T/L162R/M171V/P40S/Q125H/Q178H/Q39Y/Q99D/R218S/R42G/S66Y/V115G/W38E); test: biochemical; assay type: binding
T9 construct: Epstein-Barr virus (EBV) transformed homozygous cell lines were used as sources; endogenous in cells; host or cells: OLL (EBV-transformed homozygous B cell line)

[10] = target: T10, DRB1*0901 (DR9) (Homo sapiens, UniProt P01903+P01911, A100R/A103E/D57H/D86V/F55Y/F60I/F76Y/I96F/K127E/L162R/M171V/P40D/Q125H/Q99R/R33Q/R42F/S133A/S66N/T210M/V115G/W38K/Y107V/Y59G/Y89S); test: biochemical; assay type: binding; conditions: Binding Capacity (IC 50% nM) Other Alleles DR9
T10 construct: Epstein-Barr virus (EBV) transformed homozygous cell lines were used as sources; endogenous in cells

[11] = target: T11, DRB1*1201 (DR5w12) (Homo sapiens, UniProt P01903+P01911, A100R/A169T/D57E/D86V/F55L/H45Y/K41T/L162R/M171V/P40S/Q125H/Q178H/Q39Y/Q99D/R42G/S66L/T262R/V114A/V67L/W38E/Y59H/Y61H/Y89S); test: biochemical; assay type: binding
T11 construct: Epstein-Barr virus (EBV) transformed homozygous cell lines were used as sources; endogenous in cells; host or cells: Herluf (EBV-transformed homozygous B cell line)

[12] = target: T12, DRB1*0301 (DR3w17) (Homo sapiens, UniProt P01903+P01911, A100K/A102G/A103R/A169T/F55Y/I96L/K41T/L162R/M171V/P40S/Q125H/Q178H/Q39Y/R42S/S66N/T106N/T262R/W38E/Y61H); conditions: read-out: Binding Capacity (IC 50% nM) Other Alleles DR3
[13] = target: T12, DRB1*0301 (DR3w17); test: biochemical; conditions: Binding Capacity (IC50% nM) DR3
[14] = Binding Capacity (IC 50% nM) DR1,4,7 DR4w4
[15] = read-out: Binding Capacity (IC 50% nM) Other Alleles DR2w2b
[16] = Binding Capacity (IC 50% nM) Other Alleles DR2w2a
[17] = Binding Capacity (IC 50% nM) Other Alleles DR4w15
[18] = Binding Capacity (IC 50% nM) Other Alleles DR5w11
[19] = Binding Capacity (IC 50% nM) Other Alleles DR8w2
[20] = Binding Capacity (IC50% nM) DR5w12
[21] = read-out: Binding Capacity (IC 50% nM) Other Alleles DR5w12

Row | SMILES | IC50 [1] [nM] | IC50 [2, 14] [nM] | IC50 [3] [nM] | IC50 [4, 15] [nM] | IC50 [5, 16] [nM] | IC50 [6, 17] [nM] | IC50 [7, 18] [nM] | IC50 [8] [nM] | IC50 [9, 19] [nM] | IC50 [10] [nM] | IC50 [11, 20] [nM] | IC50 [11, 21] [nM] | IC50 [12] [nM] | IC50 [13] [nM] | also measured
1 | CC(C)C[C@H](NC(=O)[C@H](CC(C)C)NC(=O)CNC(=O)[C@H](C)NC(=O)[C@H](CC(C)C)NC(=O)[C@@H](NC(=O)[C@H](CO)NC(=O)[C@@H](NC(=O)[C@H](C)NC(=O)[C@H](CC(C)C)NC(=O)[C@H](CCCCN)NC(=O)[C@H](Cc1ccc(O)cc1)NC(=O)[C@H](CCCCN)NC(=O)[C@H](CO)NC(=O)[C@@H](N)CCCCN)[C@@H](C)O)C(C)C)C(=O)O [Peptide 1188.16] | < 1000 | < 1000 | < 1000 | > 1000 | < 1000 | < 1000 | < 1000 | < 1000 | < 1000 | < 1000 | > 10000 | > 1000 | > 1000 | > 10000 | –
2 | CC(C)C[C@H](NC(=O)CNC(=O)[C@H](C)NC(=O)[C@H](CC(C)C)NC(=O)[C@@H](NC(=O)[C@H](CO)NC(=O)[C@@H](NC(=O)[C@H](C)NC(=O)[C@H](CC(C)C)NC(=O)[C@H](CCCCN)NC(=O)[C@H](Cc1ccc(O)cc1)NC(=O)[C@@H](N)CCCCN)[C@@H](C)O)C(C)C)C(=O)N[C@@H](CC(C)C)C(=O)NCC(=O)N[C@@H](CC(N)=O)C(=O)O [Peptide F107.09] | < 1000 | < 1000 | < 1000 | > 1000 | < 1000 | < 1000 | < 1000 | < 1000 | < 1000 | < 1000 | > 10000 | > 1000 | > 1000 | > 10000 | –
3 | CC(C)C[C@H](NC(=O)CNC(=O)[C@H](C)NC(=O)[C@@H](N)CC(C)C)C(=O)N[C@@H](CC(C)C)C(=O)NCC(=O)N[C@@H](CC(N)=O)C(=O)N[C@H](C(=O)N[C@@H](CO)C(=O)N[C@H](C(=O)N[C@H](C(=O)N[C@@H](CC(C)C)C(=O)N[C@@H](CC(C)C)C(=O)NCC(=O)NCC(=O)O)C(C)C)[C@@H](C)O)C(C)C [Peptide F107.10] | < 1000 | – | < 1000 | – | – | – | – | < 1000 | – | < 1000 | > 10000 | > 1000 | > 1000 | > 10000 | IC50 ([2]; read-out: Binding Capacity (IC 50% nM) DR1,4,7 DR4w4): > 1000 nM; IC50 ([4]; Binding Capacity (IC 50% nM) Other Alleles DR2w2b): < 1000 nM; IC50 ([5]; Binding Capacity (IC50% nM) DR2w2a): > 10000 nM; IC50 ([5]; read-out: Binding Capacity (IC 50% nM) Other Alleles DR2w2a): > 1000 nM; IC50 ([6]; read-out: Binding Capacity (IC 50% nM) Other Alleles DR4w15): > 1000 nM; IC50 ([7]; Binding Capacity (IC50% nM) DR5w11): > 10000 nM; IC50 ([7]; read-out: Binding Capacity (IC 50% nM) Other Alleles DR5w11): > 1000 nM; IC50 ([9]; Binding Capacity (IC50% nM) DR8w2): > 10000 nM; IC50 ([9]; read-out: Binding Capacity (IC 50% nM) Other Alleles DR8w2): > 1000 nM
